Experiment: xn = mol fraction of the nth substance listed
Settings: 100 kPa

CCCC[n+]1ccn(C)c1.O=S(=O)([O-])C(F)(F)F + CCOC(C)=O
Settings | speed of sound [m/s] | viscosity [mPa·s]
298.15 K, x1 = 0.0991 | 1172.2 | 1.27
298.15 K, x1 = 0.1916 | 1209.8 | 4.59
298.15 K, x1 = 0.3056 | 1252.1 | 10.8
298.15 K, x1 = 0.3978 | 1279.4 | 16
298.15 K, x1 = 0.5067 | 1310.3 | 22
298.15 K, x1 = 0.7138 | 1361.8 | 35
298.15 K, x1 = 0.7987 | 1374.2 | 41.8
298.15 K, x1 = 1 | 1393.2 | 82
303.15 K, x1 = 0.0991 | 1153.5 | 0.99
303.15 K, x1 = 0.1916 | 1191.9 | 3.76
303.15 K, x1 = 0.3056 | 1236.1 | 9
303.15 K, x1 = 0.5067 | 1296.5 | 18.5
303.15 K, x1 = 0.6095 | 1324.9 | 23.6
303.15 K, x1 = 0.7138 | 1349.9 | 29.1
303.15 K, x1 = 0.7987 | 1362.1 | 34.7
303.15 K, x1 = 0.8932 | 1371.6 | 44.9
308.15 K, x1 = 0.0991 | 1132.8 | 0.89
308.15 K, x1 = 0.1916 | 1174 | 3.12
308.15 K, x1 = 0.3056 | 1220.2 | 7.3
308.15 K, x1 = 0.3978 | 1251.5 | 10.8
308.15 K, x1 = 0.5067 | 1282.6 | 15.1
308.15 K, x1 = 0.6095 | 1312.1 | 19.6
308.15 K, x1 = 0.7138 | 1338.2 | 24.6
308.15 K, x1 = 0.7987 | 1351 | 29.1
308.15 K, x1 = 0.8932 | 1359.7 | 37.1
308.15 K, x1 = 1 | 1371.7 | 53
313.15 K, x1 = 0.1916 | 1156.4 | 2.89
313.15 K, x1 = 0.3056 | 1204.4 | 6.6
313.15 K, x1 = 0.3978 | 1237.6 | 9.8
313.15 K, x1 = 0.5067 | 1268.7 | 13.5
313.15 K, x1 = 0.6095 | 1300.4 | 17.1
313.15 K, x1 = 0.7138 | 1326.8 | 20.9
313.15 K, x1 = 0.7987 | 1338.3 | 24.6
313.15 K, x1 = 0.8932 | 1349.5 | 31
318.15 K, x1 = 0.0991 | 1091.7 | 0.79
318.15 K, x1 = 0.3056 | 1188.6 | 5.8
318.15 K, x1 = 0.3978 | 1223.7 | 8.5
318.15 K, x1 = 0.5067 | 1254 | 11.7
318.15 K, x1 = 0.6095 | 1288 | 14.8
318.15 K, x1 = 0.7138 | 1314.3 | 18
318.15 K, x1 = 0.7987 | 1326.4 | 21.1
318.15 K, x1 = 0.8932 | 1337.3 | 26.2
323.15 K, x1 = 0.0991 | 1071.3 | 0.75
323.15 K, x1 = 0.1916 | 1120.7 | 2.26
323.15 K, x1 = 0.3056 | 1172.8 | 5
323.15 K, x1 = 0.3978 | 1210.9 | 7.2
323.15 K, x1 = 0.5067 | 1240.3 | 9.9
323.15 K, x1 = 0.6095 | 1274.9 | 12.9
323.15 K, x1 = 0.7138 | 1303.2 | 15.6
323.15 K, x1 = 1 | 1338.8 | 30.6

CCOC(C)=O + CCCC[n+]1ccn(C)c1.O=S(=O)([O-])C(F)(F)F
x2 = 0
Settings | speed of sound [m/s] | viscosity [mPa·s]
303.15 K | 1118.3 | 0.4
308.15 K | 1096 | 0.37
313.15 K | 1073.7 | 0.35
318.15 K | 1051.7 | 0.34
323.15 K | 1029.5 | 0.33

Source: a compilation of properties of binary mixtures (doi:10.1007/s10953-016-0490-x)
